The source of these data is patent publication US20230233533A1, “COMPOSITIONS, METHODS OF TREATING AND PREVENTING FUNGAL INFECTIONS, AND METHODS OF INHIBITING PRP8 INTEIN EXPRESSION” (Health Research, Inc., priority 2020, published 2023).

pIC50: −log10 of the molar value. Where two headings read alike, the source gives them in different places.

Series [1] concerns the target T1, Prp8 intein (Cryptococcus gattii, UniProt E6R027). Nature of the series: Split GFP-Prp8i intein splicing assay. As to conditions: for pIC50: split GFP-Prp8 intein splicing. Type of series: biochemical.
The subject of series [2] is human lung carcinoma cell line A549. Nature of the series: in vitro. Type of series: cell-based. As to conditions: 48 h, MTT. Put shortly:
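A549 cells (5×10^3 per well) were exposed to compounds at 37 °C for 48 h, and viability was read by MTT assay; N=3.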

The target of series [3] is T1, Prp8 intein. The series is described as follows: Split Renilla luciferase RLuc-Prp8 intein splicing assay. Type of series: biochemical. To be noted: split Renilla luciferase RLuc-Prp8 intein splicing. Here is the method: Split luciferase Prp8 intein splicing assay—The split RLuc-Prp8 fusion protein was carried out and monitored using a Veritas luminometer, as described previously.
Split luciferase RLuc-Prp8 and NnLuc-Prp8 intein splicing assays—The split RLuc-Prp8 intein splicing assay was carried out and monitored using a Veritas luminometer, as described previously. […] Microbes. Infect. […] For NnLuc-Prp8 intein splicing assay, the NnLuc-prp8 is diluted in assay buffer (50 mM Tris, 0.1% BSA, 1 mM EDTA, pH 7.4) and 50 ul is added to each well in 96 well black plates. Test molecules or the solvent was added and incubated for 30 to 60 min. A splicing inducer TCEP (50 ul, 100 μM) is added and incubated for 24 h. Luciferase substrate (Furimazine, 25 ul 1:10,000 diluted) is added and luminescence is read using a luminescence reader. IC50 is calculated using Graphpad prism.

In series [4] the test system is C. neoformans H99 strain. The series is described as follows: Fungal susceptibility test, broth microdilution MIC. Type of series: cell-based, Cryptococcus neoformans. As to conditions: C. neoformans H99, microbroth dilution; read-out: MIC H99. In a few lines: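 Compound MICs were determined by broth microdilution using a compound concentration series.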
Series [5] deals with T1, Prp8 intein. As to conditions: value from Li et al. 2019; read-out: IC50 determined using the RLuc-Prp8 assay; cited from earlier work.
In series [6] the target is T2, papain (Carica papaya, UniProt P00784).
T2 construct: purchased Sigma-Aldrich
T2 sequence (P00784 134-345): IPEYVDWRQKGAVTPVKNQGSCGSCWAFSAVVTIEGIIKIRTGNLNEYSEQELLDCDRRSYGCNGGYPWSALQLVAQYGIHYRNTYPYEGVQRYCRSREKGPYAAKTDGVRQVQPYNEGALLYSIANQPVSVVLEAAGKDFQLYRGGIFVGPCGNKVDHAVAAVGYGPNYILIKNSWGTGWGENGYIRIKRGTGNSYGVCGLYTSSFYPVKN
The series is described as follows: Papain protease inhibition (Abz FRET substrate). Type of series: biochemical. As to conditions: compound at 400 μM. The method, then: (§1) Trypsin and papain protease inhibition—An Abz FRET substrate (Abz-RRRRSAG-nTyr) developed previously (Li et al., “Existing Drugs as Broad-Spectrum and Potent Inhibitors for Zika Virus by Targeting NS2B-NS3 Interaction,” Cell Research 27(8):1046-1064 (2017), which is hereby incorporated by reference in its entirety) was used as the substrate for inhibition of trypsin and papain proteases. In black and clear-bottom 96-well plates, 1 μg trypsin (Sigma-Aldrich) was incubated with DMF or compounds at 400 μM at 25° C. for 30 min in a 70 μl reaction buffer containing 20 mM Tris, pH 8.0, 100 mM NaCl, 5% Glycerol, and 0.05% CHAPS. For papain, 1 μg Papain (Sigma-Aldrich) was incubated with compounds at 400 μM at 25° C. for 30 min in a 70 μl reaction buffer composed of 1.1 mM EDTA, 0.067 mM β-mercaptoethanol, 5.5 mM cysteine. […]

The test system of series [7] is trypsin. The series is described as follows: Trypsin protease inhibition (Abz FRET substrate). Type of series: biochemical. To be noted: compound at 400 μM. Here is the method:
as §1

T1 sequence (E6R027 entry or part of it): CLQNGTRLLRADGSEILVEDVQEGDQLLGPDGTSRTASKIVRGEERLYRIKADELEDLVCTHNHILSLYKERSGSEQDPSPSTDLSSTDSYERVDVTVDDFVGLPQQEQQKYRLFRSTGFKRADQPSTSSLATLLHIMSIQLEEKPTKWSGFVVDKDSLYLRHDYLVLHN

Regarding “5-((4-Chlorophenyl)sulfonyl)-N-(6-fluoropyridin-3-yl)-1,2,3-thiadiazole-4-carboxamide [JMX0581]”, the pIC50 in series [1] was 5.21; in series [3] it was 4.95. Half-maximal cytotoxicity in series [2] (CC50) was put at 92.4 µM.
“5-((4-Chlorophenyl)thio)-N-(6-fluoropyridin-3-yl)-1,2,3-thiadiazole-4-carboxamide [JMX0580]”: the pIC50 in series [1] is 4.45; in series [3] it was 5.19. For the same compound, the CC50 in series [2] is 33.1 µM. In addition, the minimum inhibitory concentration (MIC) in series [4] is recorded as more than 100 µM.
On to `N.N.[Cl][Pt][Cl]` [cisplatin, reference compound], for which, in series [1] (cisplatin 40 μM, GFP-Prp8i 200 nM), the “fluorescence increase of the GFP-Prp8i fusion” value is reported as “significantly reduced”. In addition, the values for the pIC50 in series [1] and in series [5] were 5.17 and 5.60, respectively. Further, the “inhibition of papain protease activity” value in series [6] is “neither 6G-318S, 6G-319S, nor cisplatin significantly inhibited”. The “inhibition of trypsin protease activity” value in series [7] is “neither 6G-318S, 6G-319S, nor cisplatin significantly inhibited”.
